# Several values for one entry are separate records, joined by “and”; a condition that tells them apart may be missing. Identical values can stand only once. Marks after values point to notes of the source that are not given here.
# What was measured:
# Assay in all cases: Neutropenic murine thigh infection model
# [1] = tested on: K. pneumoniae 59; format: in vivo, Klebsiella pneumoniae
# Description: (§1) All dosing regimens were performed in at least two animals per dosing regimen.
# (§2) At t = 0 h, 2 h after infection, two mice were humanely euthanized to determine the initial number of cfu/thigh just before treatment. […] Subsequently, thighs were homogenized using the Ultra-Turrax homogenizer (IKA Labortechnik, Germany). For each thigh 10-fold dilution series were prepared and 3 × 10 µL per dilution were plated (Chromagar, bioMérieux, NL). The following day, colonies were counted and the number of cfu/thigh was calculated.
# (§3) Free drug concentrations were used in all calculations.
# [2] = tested on: P. aeruginosa 106; format: in vivo, Pseudomonas aeruginosa
# Description: as §1, §2, §3
# [3] = tested on: P. aeruginosa 132; format: in vivo, Pseudomonas aeruginosa
# Description: as §1, §2, §3
# [4] = + cefepime q2h 64 mg/kg, Ct 0.015 mg/L
# [5] = + cefepime q2h 64 mg/kg, Ct 0.03 mg/L
# [6] = + cefepime q2h 64 mg/kg, Ct 0.06 mg/L
# [7] = + cefepime q2h 64 mg/kg, Ct 0.125 mg/L
# [8] = + cefepime q2h 64 mg/kg, Ct 0.25 mg/L
# [9] = + cefepime q2h 64 mg/kg, Ct 0.5 mg/L
# [10] = + cefepime q2h 64 mg/kg, Ct 1 mg/L
# [11] = + cefepime q2h 64 mg/kg, Ct 2 mg/L
# [12] = + cefepime q2h 64 mg/kg, Ct 4 mg/L
# [13] = taniborbactam q2h + cefepime q2h 64 mg/kg
# [14] = + cefepime q2h 8 mg/kg, Ct 0.015 mg/L
# [15] = + cefepime q2h 8 mg/kg, Ct 0.03 mg/L
# [16] = + cefepime q2h 8 mg/kg, Ct 0.06 mg/L
# [17] = + cefepime q2h 8 mg/kg, Ct 0.125 mg/L
# [18] = + cefepime q2h 8 mg/kg, Ct 0.25 mg/L
# [19] = + cefepime q2h 8 mg/kg, Ct 0.5 mg/L
# [20] = + cefepime q2h 8 mg/kg, Ct 1 mg/L
# [21] = + cefepime q2h 8 mg/kg, Ct 2 mg/L
# [22] = + cefepime q2h 8 mg/kg, Ct 4 mg/L
# [23] = taniborbactam q2h + cefepime q2h 8 mg/kg
smiles,measurement,setting,value
"NCCN[C@H]1CC[C@H](CC(=O)N[C@H]2Cc3cccc(C(=O)O)c3OB2O)CC1 [taniborbactam, Taniborbactam]",Stasis: Taniborbactam %ƒT > Ct 0.5 mg/L,"[1]; + cefepime q2h 4 mg/kg, Ct 0.5 mg/L",35.5%
same,1 log kill: Taniborbactam %ƒT > Ct 0.5 mg/L,"[1]; + cefepime q2h 4 mg/kg, Ct 0.5 mg/L, at extrapolated dose",100%
same,Stasis: Taniborbactam %ƒT > Ct 1 mg/L,"[1]; + cefepime q2h 4 mg/kg, Ct 1 mg/L",18.6%
same,1 log kill: Taniborbactam %ƒT > Ct 1 mg/L,"[1]; + cefepime q2h 4 mg/kg, Ct 1 mg/L, at extrapolated dose",99.01%
same,Stasis: Taniborbactam %ƒT > Ct 2 mg/L,"[1]; + cefepime q2h 4 mg/kg, Ct 2 mg/L",0%
same,1 log kill: Taniborbactam %ƒT > Ct 2 mg/L,"[1]; + cefepime q2h 4 mg/kg, Ct 2 mg/L, at extrapolated dose",83.25%
same,Stasis: Taniborbactam %ƒT > Ct 4 mg/L,"[1]; + cefepime q2h 4 mg/kg, Ct 4 mg/L",0%
same,1 log kill: Taniborbactam %ƒT > Ct 4 mg/L,"[1]; + cefepime q2h 4 mg/kg, Ct 4 mg/L, at extrapolated dose",66.35%
same,Stasis: Taniborbactam total daily dose,[1]; taniborbactam q2h + cefepime q2h 4 mg/kg,24.00 mg/kg
same,"1 log kill: Taniborbactam total daily dose, mg/kg","[1]; taniborbactam q2h + cefepime q2h 4 mg/kg, extrapolated dose, effect not reached within tested doses",(680)^b mg/kg
same,1 log kill: Taniborbactam %ƒT > Ct 0.015 mg/L,[2]; [4],100%
same,Stasis: Taniborbactam %ƒT > Ct 0.015 mg/L,[2]; [4],100%
same,1 log kill: Taniborbactam %ƒT > Ct 0.03 mg/L,[2]; [5],100%
same,Stasis: Taniborbactam %ƒT > Ct 0.03 mg/L,[2]; [5],100%
same,1 log kill: Taniborbactam %ƒT > Ct 0.06 mg/L,[2]; [6],100%
same,Stasis: Taniborbactam %ƒT > Ct 0.06 mg/L,[2]; [6],100%
same,1 log kill: Taniborbactam %ƒT > Ct 0.125 mg/L,[2]; [7],100%
same,Stasis: Taniborbactam %ƒT > Ct 0.125 mg/L,[2]; [7],100%
same,1 log kill: Taniborbactam %ƒT > Ct 0.25 mg/L,[2]; [8],100%
same,Stasis: Taniborbactam %ƒT > Ct 0.25 mg/L,[2]; [8],88.39%
same,1 log kill: Taniborbactam %ƒT > Ct 0.5 mg/L,[2]; [9],96.5%
same,Stasis: Taniborbactam %ƒT > Ct 0.5 mg/L,[2]; [9],71.5%
same,1 log kill: Taniborbactam %ƒT > Ct 1 mg/L,[2]; [10],79.6% and 79.61%
same,Stasis: Taniborbactam %ƒT > Ct 1 mg/L,[2]; [10],54.6% and 54.61%
same,1 log kill: Taniborbactam %ƒT > Ct 2 mg/L,[2]; [11],62.71%
same,Stasis: Taniborbactam %ƒT > Ct 2 mg/L,[2]; [11],37.74%
same,1 log kill: Taniborbactam %ƒT > Ct 4 mg/L,[2]; [12],45.8%
same,Stasis: Taniborbactam %ƒT > Ct 4 mg/L,[2]; [12],20.82%
same,"1 log kill: Taniborbactam total daily dose, mg/kg",[2]; [13],293 mg/kg
same,Stasis: Taniborbactam total daily dose,[2]; [13],105.00 mg/kg
same,1 log kill: Taniborbactam %ƒT > Ct 0.015 mg/L,[3]; [14],100%
same,Stasis: Taniborbactam %ƒT > Ct 0.015 mg/L,[3]; [14],100%
same,1 log kill: Taniborbactam %ƒT > Ct 0.03 mg/L,[3]; [15],100%
same,Stasis: Taniborbactam %ƒT > Ct 0.03 mg/L,[3]; [15],96.10%
same,1 log kill: Taniborbactam %ƒT > Ct 0.06 mg/L,[3]; [16],88.19%
same,Stasis: Taniborbactam %ƒT > Ct 0.06 mg/L,[3]; [16],79.2%
same,1 log kill: Taniborbactam %ƒT > Ct 0.125 mg/L,[3]; [17],71.30%
same,Stasis: Taniborbactam %ƒT > Ct 0.125 mg/L,[3]; [17],62.31%
same,1 log kill: Taniborbactam %ƒT > Ct 0.25 mg/L,[3]; [18],54.41%
same,Stasis: Taniborbactam %ƒT > Ct 0.25 mg/L,[3]; [18],45.1%
same,1 log kill: Taniborbactam %ƒT > Ct 0.5 mg/L,[3]; [19],37.51%
same,Stasis: Taniborbactam %ƒT > Ct 0.5 mg/L,[3]; [19],28.53%
same,1 log kill: Taniborbactam %ƒT > Ct 1 mg/L,[3]; [20],20.6% and 20.62%
same,Stasis: Taniborbactam %ƒT > Ct 1 mg/L,[3]; [20],11.6% and 11.63%
same,1 log kill: Taniborbactam %ƒT > Ct 2 mg/L,[3]; [21],3.72%
same,Stasis: Taniborbactam %ƒT > Ct 2 mg/L,[3]; [21],0%
same,1 log kill: Taniborbactam %ƒT > Ct 4 mg/L,[3]; [22],0%
same,Stasis: Taniborbactam %ƒT > Ct 4 mg/L,[3]; [22],0%
same,"1 log kill: Taniborbactam total daily dose, mg/kg",[3]; [23],26 mg/kg
same,Stasis: Taniborbactam total daily dose,[3]; [23],18.00 mg/kg

# Source: paper PMC12802961 (Journal of Antimicrobial Chemotherapy, 2025)
